# Columns and labels:
# Experiment in all cases: relative viability (nuclei count vs DMSO), 5 days (fraction); higher = more cells survive
# AZD1208 + Linsitinib = compound: N[C@@H]1CCCN(c2c(/C=C3\SC(=O)NC3=O)cccc2-c2ccccc2)C1 [AZD1208] + C[C@]1(O)C[C@@H](c2nc(-c3ccc4ccc(-c5ccccc5)nc4c3)c3c(N)nccn32)C1 [Linsitinib] (partner 1 µM)
# Method in brief: (§1)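 A single step with final 0.05% Triton X-100, 1% formaldehyde and 1 ug/ml Hoechst fixed the cells and stained nuclei 5 days after treatment. Lung cancer cell lines in 1536-well plates had been treated by pin tool the day after seeding with one drug alone or a fixed anchor-drug dose plus five library-drug doses (not always all listed) in √10 steps, and nuclei were counted on 4× images. Relative viability is the ratio of nuclei in treated wells to nuclei in vehicle wells, taken as the median of duplicate plates.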
# XMD14-99 + Olaparib = compound: CN1CCN(CC1)C2=CC(=C(C=C2)NC3=NC(=C(S3)C(=O)C4=C(C=CC=C4Cl)Cl)N)OC [XMD14-99] + O=C(c1cc(Cc2n[nH]c(=O)c3ccccc23)ccc1F)N1CCN(C(=O)C2CC2)CC1 [Olaparib] (partner 8 µM)
# Method in brief: as §1
# AZD1208 + Decitabine = compound: N[C@@H]1CCCN(c2c(/C=C3\SC(=O)NC3=O)cccc2-c2ccccc2)C1 [AZD1208] + Nc1ncn([C@H]2C[C@H](O)[C@@H](CO)O2)c(=O)n1 [Decitabine] (partner 2 µM)
# Method in brief: as §1
# XMD14-99 + Luminespib = compound: CN1CCN(CC1)C2=CC(=C(C=C2)NC3=NC(=C(S3)C(=O)C4=C(C=CC=C4Cl)Cl)N)OC [XMD14-99] + CCNC(=O)c1noc(-c2cc(C(C)C)c(O)cc2O)c1-c1ccc(CN2CCOCC2)cc1 [Luminespib] (partner 0.01 µM)
# Method in brief: as §1
Cell Line,relative viability (AZD1208 + Linsitinib; first compound 0.08 µM),relative viability (AZD1208 + Linsitinib; first compound 0.253 µM),relative viability (AZD1208 + Linsitinib; first compound 0.8 µM),relative viability (AZD1208 + Linsitinib; first compound 2.53 µM),relative viability (AZD1208 + Linsitinib; first compound 8 µM),relative viability (XMD14-99 + Olaparib; first compound 0.08 µM),relative viability (XMD14-99 + Olaparib; first compound 0.8 µM),relative viability (XMD14-99 + Olaparib; first compound 2.53 µM),relative viability (XMD14-99 + Olaparib; first compound 8 µM),relative viability (AZD1208 + Decitabine; first compound 0.08 µM),relative viability (AZD1208 + Decitabine; first compound 0.253 µM),relative viability (AZD1208 + Decitabine; first compound 0.8 µM),relative viability (AZD1208 + Decitabine; first compound 2.53 µM),relative viability (AZD1208 + Decitabine; first compound 8 µM),relative viability (XMD14-99 + Luminespib; first compound 0.08 µM),relative viability (XMD14-99 + Luminespib; first compound 0.8 µM),relative viability (XMD14-99 + Luminespib; first compound 2.53 µM),relative viability (XMD14-99 + Luminespib; first compound 8 µM)
NCI-H1395,0.989,1.15,0.979,1.07,0.881,0.475,0.472,0.47,0.364,0.724,0.785,0.714,0.719,0.685,0.733,0.685,0.699,0.555
NCI-H1437,1.03,1.09,0.887,0.832,0.866,0.615,0.622,0.56,0.464,0.546,0.594,0.638,0.581,0.536,1.12,0.992,0.949,0.862
NCI-H1651,0.912,0.619,0.758,0.852,0.83,0.187,0.203,0.147,0.157,0.665,0.642,,0.613,0.554,0.939,0.647,0.63,0.644
NCI-H1666,0.831,0.677,0.748,0.671,0.657,0.81,0.73,0.737,0.763,0.735,0.713,0.635,0.743,0.629,1.05,0.936,0.949,0.88
NCI-H1734,0.728,0.807,0.795,0.791,0.603,0.605,0.581,0.595,0.385,0.534,0.466,0.44,0.424,0.409,0.175,0.179,0.172,0.185
NCI-H1755,0.993,0.995,0.913,0.998,0.95,0.888,0.815,0.835,0.622,0.695,0.675,0.723,0.713,0.625,0.464,0.396,0.305,0.369
NCI-H1792,0.474,0.648,0.446,0.439,0.467,0.486,0.383,0.265,0.0886,0.624,0.538,,0.505,0.468,0.543,0.456,0.354,0.326
NCI-H1793,0.765,0.804,0.564,0.967,0.583,0.818,0.915,0.782,0.622,0.447,0.448,0.509,0.463,0.363,0.232,0.184,0.499,0.25
NCI-H1915,1.15,1.09,1.06,1.1,1.11,0.239,0.246,0.268,0.234,0.249,0.263,0.235,0.271,0.231,0.745,0.72,0.754,0.61
